Where a name gives a salt, the structure may show the parent alone.

The nature of the data set: collision cross section in nitrogen (drift tube, single-field); higher = larger gas-phase ion size.
[1] abbreviates: ion type: [M+], ion source: APCI, ion mode: Positive.
Setting [2] is: ion type: [M+Na], ion source: ESI, ion mode: Positive.
The mark [3] stands for this setting: ion type: [M-H], ion source: ESI, ion mode: Negative.
Where [4] appears, read: ion type: [M+H], ion source: ESI, ion mode: Positive.
[5] abbreviates: ion type: [M+H], ion source: APCI, ion mode: Positive.
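Also: chemical standards at 10 µM analysed by drift tube IMS-QTOF MS in about 3.95 torr nitrogen, mean of duplicate injections differing ≤1%, mass error below 10 ppm.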

As for `COC(=O)[C@H]1[C@H]2C[C@@H]3c4[nH]c5cc(OC)ccc5c4CCN3C[C@H]2C[C@@H](OC(=O)c2cc(OC)c(OC)c(OC)c2)[C@@H]1OC` [Reserpine], under setting [1], the “collision cross section in nitrogen” value is recorded as 242.8 Å².
Take `CN(C)CCOC(c1ccccc1)c1ccccc1` [Diphenhydramine hydrochloride]: the “collision cross section in nitrogen” value under setting [2] worked out at 168.8 Å².
Turning to `CCCCC(CC)COS(=O)(=O)O` (stereo not drawn) [Sodium ethasulfate hydrate], under setting [3], the “collision cross section in nitrogen” value is 150.1 Å².
The same measure, in the same setting: next, `CC(c1ccc(O)cc1)(c1ccc(O)cc1)c1ccc(O)cc1` [4,4',4''-Ethane-1,1,1-triyltriphenol]: 184.3 Å².
Take `C[N+](C)(C)Cc1ccccc1` [Benzyltrimethylammonium chloride]: the “collision cross section in nitrogen” value (ion source: ESI, ion mode: Positive, ion type: [M]+ (permanent cation)) is given as 131.9 Å².
For the compound `CCCCCCCCOS(=O)(=O)O` [Sodium octyl sulfate], under setting [3], the “collision cross section in nitrogen” value came to 151.3 Å².
On to `CC1(C)CC(N)CC(C)(CN)C1` (stereo not drawn) [Isophorone diamine], for which, under setting [4], the “collision cross section in nitrogen” value is 142.3 Å².
Consider `COc1ccccc1C=O` [2-Methoxybenzaldehyde], for which the “collision cross section in nitrogen” value under setting [1] is listed as 124.1 Å².
`N#Cc1c(-c2ccc(Cl)cc2)[nH]c(C(F)(F)F)c1Br` [Tralopyril]: the “collision cross section in nitrogen” value under setting [3] was 157.9 Å².
As for `N#Cc1ccc(CC(=NNC(=O)Nc2ccc(OC(F)(F)F)cc2)c2cccc(C(F)(F)F)c2)cc1` [Metaflumizone], the “collision cross section in nitrogen” value came to 212.4 Å² under setting [4] and 220.1 Å² under setting [2].
For `CCOc1nc(F)cc2nc(S(=O)(=O)Nc3c(Cl)cccc3C(=O)OC)nn12` [Cloransulam-methyl], the “collision cross section in nitrogen” value reads like this: under setting [5], 191 Å²; under setting [4], 190.7 Å²; under setting [2], 192 Å²; under setting [3], 190.2 Å².
On to `CCCc1ccccc1O` [2-Propylphenol], for which the “collision cross section in nitrogen” value under setting [3] turned out to be 129.6 Å².
`CCOP(=S)(OCC)SCCS(=O)(=O)CC` [Disulfoton sulfone]: the “collision cross section in nitrogen” value under setting [2] is listed as 166 Å².
For the compound `C[C@]12CC[C@H]3C(=CCc4cc(O)ccc43)[C@@H]1CCC2=O` [Equilin], the “collision cross section in nitrogen” value under setting [3] is on record as 172.2 Å².
As to `OCCc1ccccn1` [2-(2-Pyridyl)ethanol], the “collision cross section in nitrogen” value under setting [5] amounted to 120.7 Å² and the “collision cross section in nitrogen” value under setting [4] came out at 121.2 Å².
As for `S=P(N1CC1)(N1CC1)N1CC1` [Thiotepa], the “collision cross section in nitrogen” value under setting [5] is 132.5 Å² and the “collision cross section in nitrogen” value under setting [4] is 132.5 Å².
Regarding `COc1ccc(C(O)(c2cncnc2)C2CC2)cc1` (stereo not drawn) [Ancymidol], the “collision cross section in nitrogen” value by setting is: under setting [5], 164.3 Å²; under setting [4], 164.2 Å².
In the case of `O=C(Nc1ccc(Cl)cc1)Nc1ccc(Cl)c(Cl)c1` [Triclocarban], under setting [3], the “collision cross section in nitrogen” value is listed as 169 Å².
Turning to `c1cncc([C@@H]2CCCCN2)c1` [Anabasine], the “collision cross section in nitrogen” value came to 136.4 Å² under setting [5] and 135.9 Å² under setting [4].
As to `CNc1ccc(NCCO)c2c1C(=O)c1ccccc1C2=O` [C.I. Disperse Blue 3], the “collision cross section in nitrogen” value runs as follows: under setting [5], 167.2 Å²; under setting [4], 167.5 Å².
Turning to `COC(=O)C(C)Oc1ccc(Oc2ncc(C(F)(F)F)cc2Cl)cc1` (stereo not drawn) [Haloxyfop-methyl], the “collision cross section in nitrogen” value under setting [4] was found to be 184.4 Å² and the “collision cross section in nitrogen” value under setting [2] is on record as 185.6 Å².
In the case of `O=C(O)CNc1ccccc1` [Potassium anilinoacetate], the “collision cross section in nitrogen” value under setting [3] amounted to 134.6 Å².
On to `CC(C)(O)c1ccc(CNC(=O)c2cccnc2Oc2ccc(F)cc2)cc1`, for which the “collision cross section in nitrogen” value is, setting by setting: under setting [5], 201.1 Å²; under setting [2], 190.4 Å²; under setting [3], 196.7 Å².
`Nc1ccnc(=O)[nH]1` [Cytosine]: the “collision cross section in nitrogen” value is recorded as 117.3 Å² under setting [5] and 118.8 Å² under setting [4].
With `c1ccc2[nH]c(-c3cscn3)nc2c1` [Thiabendazole], the “collision cross section in nitrogen” value under setting [5] was 141.6 Å², the “collision cross section in nitrogen” value under setting [4] was found to be 139.7 Å², the “collision cross section in nitrogen” value under setting [2] was determined as 152.4 Å² and the “collision cross section in nitrogen” value under setting [3] is on record as 142 Å².
Consider `COc1ncc(F)c2nc(S(=O)(=O)Nc3c(F)cccc3F)nn12` [Florasulam], for which the “collision cross section in nitrogen” value by setting is: under setting [5], 172.3 Å²; under setting [4], 172.1 Å²; under setting [2], 181.7 Å²; under setting [3], 174.5 Å².
Consider `CC1(C)[C@@H](O[C@H]2O[C@H](C(=O)O)[C@@H](O)[C@H](O)[C@H]2O[C@@H]2O[C@H](C(=O)O)[C@@H](O)[C@H](O)[C@H]2O)CC[C@]2(C)[C@H]3C(=O)C=C4[C@@H]5C[C@@](C)(C(=O)O)CC[C@]5(C)CC[C@@]4(C)[C@]3(C)CC[C@@H]12` [Glycyrrhizin], for which the “collision cross section in nitrogen” value by setting is: under setting [4], 288.9 Å²; under setting [2], 296.2 Å²; under setting [3], 281.7 Å².
Take `CN(C1CCCCC1)S(=O)(=O)c1ccccc1N` [2-Amino-N-cyclohexyl-N-methylbenzenesulfonamide]: the “collision cross section in nitrogen” value under setting [2] came out at 173.9 Å².
Consider `O=c1[nH]cnc2c1ncn2[C@H]1CC[C@@H](CO)O1` [Didanosine], for which, under setting [3], the “collision cross section in nitrogen” value is given as 153.5 Å².
As for `COCC(C)N(C(=O)CCl)c1c(C)csc1C` (stereo not drawn) [Dimethenamid], the “collision cross section in nitrogen” value runs as follows: under setting [5], 155.2 Å²; under setting [4], 155.9 Å²; under setting [2], 167.9 Å².
For `CN(C)C(=O)Nc1ccccc1` [Fenuron], the “collision cross section in nitrogen” value is given as 134 Å² under setting [5], 134.4 Å² under setting [4], 144.7 Å² under setting [2] and 137 Å² under setting [3].
`CC(=O)c1cccnc1` [3-Acetylpyridine]: the “collision cross section in nitrogen” value under setting [5] was determined as 123.6 Å².
`CCCCCCOC(=O)c1ccc(O)cc1` [Hexylparaben]: under setting [3], the “collision cross section in nitrogen” value was found to be 161.1 Å².
In the case of `CCOC(=O)n1ccn(C)c1=S` [Carbimazole], the “collision cross section in nitrogen” value under setting [2] was 148 Å².
Take `CC(=NNC(=O)Nc1cc(F)cc(F)c1)c1ncccc1C(=O)O` [Diflufenzopyr]: the “collision cross section in nitrogen” value under setting [2] was determined as 181.6 Å².
Take `C[C@@H]1C[C@H]2[C@@H]3CCC4=CC(=O)C=C[C@]4(C)[C@@]3(F)[C@@H](O)C[C@]2(C)[C@@]1(O)C(=O)COP(=O)(O)O` [Dexamethasone sodium phosphate]: the “collision cross section in nitrogen” value under setting [3] is recorded as 201 Å².
Regarding `CN(C)C(=O)Nc1cccc(C(F)(F)F)c1` [Fluometuron], the “collision cross section in nitrogen” value runs as follows: under setting [5], 150.5 Å²; under setting [4], 150.1 Å²; under setting [2], 155 Å²; under setting [3], 146.2 Å².
In the case of `CC(=O)Oc1c(C)c(C)c2c(c1C)CC[C@@](C)(CCC[C@H](C)CCC[C@H](C)CCCC(C)C)O2` (racemic) [dl-alpha-Tocopheryl acetate], the “collision cross section in nitrogen” value amounted to 226.4 Å² under setting [4] and 222 Å² under setting [2].
In the case of `CCCCc1ccc2c(n1)[C@@H](c1ccc(OC)cc1C[C@H](C)C(=O)O)[C@H](C(=O)O)[C@H]2c1ccc2c(c1)OCO2` [MK-547], the “collision cross section in nitrogen” value under setting [5] was found to be 231 Å², the “collision cross section in nitrogen” value under setting [4] is given as 230.9 Å², the “collision cross section in nitrogen” value under setting [2] is reported as 234.1 Å² and the “collision cross section in nitrogen” value under setting [3] was 236.4 Å².
For `CN(C)C(=O)NC1(c2ccccc2)CCN(CC[C@@]2(c3ccc(F)c(F)c3)CN(C(=O)c3ccccc3)CCO2)CC1`, the “collision cross section in nitrogen” value runs as follows: under setting [5], 241.2 Å²; under setting [4], 241.6 Å²; under setting [2], 243 Å².
In the case of `C[Si](Cn1cncn1)(c1ccc(F)cc1)c1ccc(F)cc1` [Flusilazole], the “collision cross section in nitrogen” value came out at 176.6 Å² under setting [5] and 174.9 Å² under setting [4].
As for `CNC(=O)ON=C(C)C(C)S(C)(=O)=O` (stereo not drawn) [Butoxycarboxim], under setting [2], the “collision cross section in nitrogen” value was found to be 149.8 Å².
As to `CCNS(=O)(=O)C(F)(F)C(F)(F)C(F)(F)C(F)(F)C(F)(F)C(F)(F)C(F)(F)C(F)(F)F` [N-Ethylperfluorooctane sulfonamide], the “collision cross section in nitrogen” value under setting [3] came to 180.4 Å².
For `C[C@]12C=CC(=O)C=C1CC[C@@H]1[C@@H]2C(=O)C[C@@]2(C)[C@H]1CC[C@]2(O)C(=O)CO` [Prednisone], the “collision cross section in nitrogen” value under setting [5] amounted to 184.1 Å² and the “collision cross section in nitrogen” value under setting [2] was found to be 192.2 Å².
Turning to `O=C1OC2(c3ccccc31)c1cc(Br)c(O)c(Br)c1Oc1c2cc(Br)c(O)c1Br` [2',4',5',7'-Tetrabromofluorescein], the “collision cross section in nitrogen” value is, setting by setting: under setting [4], 204.7 Å²; under setting [3], 208.7 Å².
Consider `CC[C@H](c1ccc(O)cc1)[C@@H](CC)c1ccc(O)cc1` [Hexestrol], for which the “collision cross section in nitrogen” value under setting [3] was 177.2 Å².
In the case of `CCCSc1ccc2[nH]c(NC(=O)OC)nc2c1` [Albendazole], the “collision cross section in nitrogen” value is 166.9 Å² under setting [5], 166 Å² under setting [4] and 160.4 Å² under setting [1].
As for `CC(C)NC(=O)c1ccccc1N` [2-Amino-N-(1-methylethyl)benzamide], under setting [3], the “collision cross section in nitrogen” value came out at 140.8 Å².
With `CCOP(=O)(N=C1SCCS1)OCC` [Phosfolan], the “collision cross section in nitrogen” value reads like this: under setting [5], 150.2 Å²; under setting [4], 150.2 Å²; under setting [2], 165.3 Å².
Regarding `Cc1ccc(C2OC[C@@H]3OC(c4ccc(C)cc4)O[C@H]([C@H](O)CO)[C@@H]3O2)cc1` (stereo partly drawn) [Di-p-methylbenzylidenesorbitol], the “collision cross section in nitrogen” value is recorded as 191.5 Å² under setting [5], 193.1 Å² under setting [4] and 194.4 Å² under setting [2].
As to `Nc1nc(N)nc(-c2ccccc2)n1` [6-Phenyl-1,3,5-triazine-2,4-diamine], the “collision cross section in nitrogen” value reads like this: under setting [5], 140.2 Å²; under setting [4], 140.6 Å².
Turning to `O=C(O)c1ccc(C(=O)O)cc1` [Terephthalic acid], under setting [3], the “collision cross section in nitrogen” value is 134 Å².
For `O=C(O)CCCCCCCC(=O)O` [Nonanedioic acid], under setting [3], the “collision cross section in nitrogen” value was found to be 140.7 Å².
Consider `Cc1oc(-c2ccccc2)nc1CCOc1ccc(C[C@H](Nc2ccccc2C(=O)c2ccccc2)C(=O)O)cc1` [Farglitazar], for which the “collision cross section in nitrogen” value came out at 217.4 Å² under setting [5], 217.1 Å² under setting [4], 224.1 Å² under setting [2] and 228.5 Å² under setting [3].
Regarding `N#Cc1nc(Cl)c(Cl)c(Cl)c1Cl` [3,4,5,6-Tetrachloropyridine-2-carbonitrile], under setting [4], the “collision cross section in nitrogen” value is listed as 142.6 Å².

Values taken from the supplement of paper PMC12317010.
